# Values joined by “and” are separate entries in the source; they are usually repeats but may differ in a detail not shown here. Identical values can stand only once. Like-named read-outs stand apart in the source and are kept apart here.
# Assays:
# [1] = tested on: S. aureus clinical isolates; assay: Antistaphylococcal activity, microdilution MIC, clinical isolates; format: cell-based; conditions: Staphylococcus aureus
# Description: The antimicrobial potential of the tested agents was evaluated against two reference strains of bacteria: Staphylococcus aureus ATCC 25923 and Escherichia coli K12, two reference strains of pathogenic yeasts, Candida albicans ATCC10231 and Candida glabrata DSMZ11226, as well as 20 strains of clinical isolates of S. aureus collected from patients with skin and soft tissue infections (n = 8) and strains derived from subclinical bovine mastitis milk samples (n = 12). Four of these strains, two isolated from human infections and two isolated from bovine mastitis, were classified as MRSA (Methicillin-resistant Staphylococcus aureus). All of them were mecA positive and their methicillin resistance was confirmed with the disc diffusion assay. The remaining 16 strains were MSSA (Methicillin-sensitive Staphylococcus aureus). The assays were performed using a serial, two-fold dilution method in 96-well microtiter plates under conditions recommended by the Clinical and Laboratory Standards Institute (CLSI, Pittsburgh, PA, USA). The aim of this procedure was the determination of the MIC parameter (Minimum Inhibitory Concentration)—the minimum concentration of a tested agent capable to inhibit the growth of a specified strain of microorganism. The agents were solubilized in deionized, sterile water to a final concentration of […]. Subsequently, solutions were mixed (1:1 (v/v)) with 2 × concentrated liquid medium, Mueller-Hinton Broth 2—cation adjusted (MHB2) for evaluation of antibacterial activity and RPMI in the case of evaluation of the antifungal activity. […] Subsequently, the solutions were mixed with MHB2 or RPMI medium to get the final concentration of 8.192 mg/mL (8192 µg/mL). In the next step, the serial, two-fold dilutions of the tested agents (over the range of concentrations from 8192 to 8 µg/mL for reference strains of bacteria and yeasts and from 512 to 1.0 µg/mL for clinical isolates of S. aureus) were prepared in 96-well microtitration plates in the final volume of 100 μL of the appropriate medium.
# The pure bacterial cultures of (both the reference and clinical strains) were grown on the Mueller-Hinton Agar (MHA) for 18–24 h at 37 °C. A small amount of the biomass of the culture of each strain of microorganisms was suspended in the sterile PBS (phosphate buffered saline, pH 7.4 at 25 °C, purchased from Sigma) solution to get an optical density OD600 = 0.13 (equal to the cells concentration approximately 1 × 10^8 CFU/mL). The obtained suspensions of the cells were next diluted 1:100 (v/v) in the MHB2 medium. One hundred µL of the cells’ suspension was finally loaded into the wells of plates prepared in advance, which contained 100 µL of two-fold dilutions of the tested agents (the final concentration of the bacterial cells in all wells was approximately 5 × 10^5 CFU/mL).
# The pure cultures of yeast strains were grown on the Sabouraud Dextrose Agar (SDA) for 18–24 h at 37 °C. Suspensions of the microorganisms were prepared by taking one loop of pure culture into sterile water and adjusting optical density to 0.1 at 660 nm and further 50-fold dilution in RPMI 1640 medium resulting in cells concentration of approximate 2 × 10^4 CFU/mL. One hundred μL of that suspension was inoculated to the wells of the microtitration plate containing appropriate dilutions of the agents. The positive growth control of each strain (both bacteria and yeasts) was performed in the wells without the tested substances. The negative control containing only the media was included in each assay. Microtiter plates were incubated at 37 °C for 24 h. Following the incubation period, determination of the MIC values of the tested agents was carried out by measuring the absorbance at 531 nm using a Victor^3 microplate reader (Perkin Elmer, Inc., Waltham, MA, USA). The lowest concentration of the agent causing inhibition of growth equal to or higher than 90% (MIC90) of growth control was taken as the MIC value. Each test was repeated three times. […]
# [2] = tested on: human keratinocytes (HaCaT cell line); assay: Cytotoxicity, MTT assay; format: cell-based; conditions: Homo sapiens, HaCaT; MTT, 24 h incubation; read-out: HaCaT IC50
# Description: To assess the cytotoxicity of QAS (IC50), the MTT assay on 96-well polystyrene plates was performed for human keratinocytes (HaCaT, Elabscience Biotechnology Inc., Houston, Texas, USA). The assay utilizes colorimetric determination of the cell metabolic activity and the color intensity reflects the number of live cells that can be measured spectrophotometrically. The cell line was cultured in a Dulbecco’s modified Eagle Medium (Invitrogen) supplemented with 10% fetal bovine serum (Sigma Aldrich) (v/v), 100 units/mL of penicillin, 100 μg/mL of streptomycin, and 2 mM L-glutamine and was stored at 37 °C in a humidified 5% CO2 incubator. Briefly, a day after plating of 500 cells per well, a series of concentrations (0.5–200 μg/mL) of the test compounds was applied. DMSO was added to the control cells at a final concentration of 1.0% (v/v), which was related to the maximal concentration of the solvent compounds used in the experiment. After 24 h of incubation with the QAS at 37 °C (humidified 5% CO2 incubator), a medium containing 1 mg/mL of MTT (3-(4,5-dimethylthiazol-2-yl)-2,5-diphenyltetrazolium bromide) was added to the wells up to a final concentration of 0.5 mg/mL. Subsequently, the plates were incubated at 37 °C for 4 h. Then, the medium was removed by suction, and the formazan product was solubilized with DMSO. The background absorbance at 630 nm was subtracted from that at 570 nm for each well (Epoch, BioTek Instruments, Winooski, VT, USA). Six replicates were conducted for each concentration. All experiments were repeated at least twice and the resulting IC50 values were calculated with GraFit 7 software (v. 7.0, Erithacus, Berkley, CA, USA).
# [3] = 20 clinical isolates, typical value, read-out: MIC against S. aureus clinical isolates, in general
# [4] = isolate 1, human infection, MSSA, read-out: MIC S. aureus isolate 1
# [5] = isolate 2, human infection, MSSA, read-out: MIC S. aureus isolate 2
# [6] = isolate 3, human infection, MSSA, read-out: MIC S. aureus isolate 3
# [7] = isolate 4, human infection, MSSA, read-out: MIC S. aureus isolate 4
# [8] = isolate 5, human infection, MSSA, read-out: MIC S. aureus isolate 5
# [9] = isolate 6, human infection, MSSA, read-out: MIC S. aureus isolate 6
# [10] = isolate 7, human infection, MRSA, read-out: MIC S. aureus isolate 7
# [11] = isolate 8, human infection, MRSA, read-out: MIC S. aureus isolate 8
# [12] = isolate 9, bovine mastitis, MSSA, read-out: MIC S. aureus isolate 9
# [13] = isolate 10, bovine mastitis, MSSA, read-out: MIC S. aureus isolate 10
# [14] = isolate 11, bovine mastitis, MSSA, read-out: MIC S. aureus isolate 11
# [15] = isolate 12, bovine mastitis, MSSA, read-out: MIC S. aureus isolate 12
# [16] = isolate 13, bovine mastitis, MSSA, read-out: MIC S. aureus isolate 13
# [17] = isolate 14, bovine mastitis, MSSA, read-out: MIC S. aureus isolate 14
# [18] = isolate 15, bovine mastitis, MSSA, read-out: MIC S. aureus isolate 15
# [19] = isolate 16, bovine mastitis, MSSA, read-out: MIC S. aureus isolate 16
# [20] = isolate 17, bovine mastitis, MSSA, read-out: MIC S. aureus isolate 17
# [21] = isolate 18, bovine mastitis, MSSA, read-out: MIC S. aureus isolate 18
# [22] = isolate 19, bovine mastitis, MRSA, read-out: MIC S. aureus isolate 19
# [23] = isolate 20, bovine mastitis, MRSA, read-out: MIC S. aureus isolate 20
"MIC [1, 3] [µg/mL]","MIC [1, 4]","MIC [1, 5]","MIC [1, 6]","MIC [1, 7]","MIC [1, 8]","MIC [1, 9]","MIC [1, 10]","MIC [1, 11]","MIC [1, 12]","MIC [1, 13]","MIC [1, 14]","MIC [1, 15]","MIC [1, 16]","MIC [1, 17]","MIC [1, 18]","MIC [1, 19]","MIC [1, 20]","MIC [1, 21]","MIC [1, 22]",Compound,other results
64,64 µg/mL and 88 µM,64 µg/mL and 88 µM,64 µg/mL and 88 µM,128 µg/mL and 176 µM,64 µg/mL and 88 µM,64 µg/mL and 88 µM,64 µg/mL and 88 µM,64 µg/mL and 88 µM,64 µg/mL and 88 µM,64 µg/mL and 88 µM,64 µg/mL and 88 µM,64 µg/mL and 88 µM,64 µg/mL and 88 µM,64 µg/mL and 88 µM,64 µg/mL and 88 µM,64 µg/mL and 88 µM,64 µg/mL and 88 µM,64 µg/mL and 88 µM,64 µg/mL and 88 µM,CCCCCCCC[N+](C)(C)C1COC2C1OCC2[N+](C)(C)CCCCCCCC (stereo not drawn) [QAS 9],"MIC [1, 23]: 64 µg/mL and 88 µM; IC50 [2]: > 100 µg/mL"
8,8 µg/mL and 10 µM,8 µg/mL and 10 µM,4 µg/mL and 5 µM,8 µg/mL and 10 µM,8 µg/mL and 10 µM,8 µg/mL and 10 µM,4 µg/mL and 5 µM,8 µg/mL and 10 µM,8 µg/mL and 10 µM,8 µg/mL and 10 µM,8 µg/mL and 10 µM,8 µg/mL and 10 µM,8 µg/mL and 10 µM,4 µg/mL and 5 µM,8 µg/mL and 10 µM,8 µg/mL and 10 µM,8 µg/mL and 10 µM,8 µg/mL and 10 µM,8 µg/mL and 10 µM,"CCCCCCCCCC[N+](C)(C)C1COC2C1OCC2[N+](C)(C)CCCCCCCCCC [QAS 10, N,N’-(1,4:3,6-Dianhydro-2,5-dideoxy-L-iditol-2,5-diyl)-bis(N,N-dimethyl-N-decylammonium) Ditrifluoromethanesulfonate]","MIC [1, 23]: 8 µg/mL and 10 µM; MIC ([1]; more susceptible strains among 20 isolates, read-out: MIC of more susceptible S. aureus clinical strains): 4 µg/mL; IC50 [2]: 12.8 ± 1.25 µg/mL"

# Source: article PMC8838521, “Antimicrobial, Cytotoxic and Mutagenic Activity of Gemini QAS Derivatives of 1,4:3,6-Dianhydro-L-iditol” (Molecules, 2022)
